This passage reports IC50 results from patent US8969565B2, “Imidazo[1,2-b]pyridazine-based compounds, compositions comprising them, and methods of their use” (Lexicon Pharmaceuticals, Inc., priority 2012, dated 2015).

Molecules are shown by their SMILES.

In this assay the target is T1, AAK1 (Homo sapiens, UniProt Q2M2I8).
T1 construct: HA; expressed in transfected cells; host or cells: HEK293F
Kind of assay: P81 filter plate assay. The assay is classed as biochemical. The conditions noted are these: full-length human AAK1, Mu2 substrate. How it is done: Compounds were serially diluted into a Labcyte LDV plate (Labcyte, cat#LP-0200) using a Mutiprobe (PerkinElmer) and Biomek FX (Beckman Coulter) so that the highest compound concentration was at 96 μM. Compounds were then pinged (75 nL per well) into a Greiner 384-well reaction plate (Greiner, #781076) using an ECHO 550 Liquid Handler (Labcyte). A total of 12 μl reaction buffer (IMAP buffer containing Tween and DTT, from Molecular Devices) was then added to each well of columns 1 and 13 for the negative controls and 12 μl of 2×AAK1 (0.2 nM full-length human protein, NCBI accession no. NP_055726.2) was added to the remaining wells. Enzyme was then pre-incubated with compound for 10 minutes at RT. Reactions were initiated upon Minitrak (PerkinElmer) addition of 12 μl substrate mix containing 2×Mu2 (0.2 μM, full length human protein), 2× cold ATP (2 μM), and 1.3 μCi of hot ^33P-ATP. Reactions proceeded for one hour at RT. Meanwhile, Millipore 384-well P81 filter plates (Millipore, catalog #MZPHNOW10) were placed on a plate washer (Zoom ZW, from Titertek) and pre-wet with 50 μl 1% phosphoric acid. Kinase reactions were then stopped upon addition of 24 μl of 2% phosphoric acid to each well and the Minitrak was then used to transfer 40 μl from each well into the pre-wet Millipore 384-well P81 filter plates. Reaction mixtures were incubated for 10 minutes at RT in the P81 plates, followed by washing five times with 100 μl/well of 1% phosphoric acid using the Zoom filter washer. The bottom of each filter plate was sealed followed by addition of 20 μl Microscint 40 to each well, sealing the top of the plates with Flashplate cover, and then waiting one hour until reading on the TopCount (PerkinElmer).

T1 sequence (Q2M2I8 1-863 isoform Q2M2I8-2): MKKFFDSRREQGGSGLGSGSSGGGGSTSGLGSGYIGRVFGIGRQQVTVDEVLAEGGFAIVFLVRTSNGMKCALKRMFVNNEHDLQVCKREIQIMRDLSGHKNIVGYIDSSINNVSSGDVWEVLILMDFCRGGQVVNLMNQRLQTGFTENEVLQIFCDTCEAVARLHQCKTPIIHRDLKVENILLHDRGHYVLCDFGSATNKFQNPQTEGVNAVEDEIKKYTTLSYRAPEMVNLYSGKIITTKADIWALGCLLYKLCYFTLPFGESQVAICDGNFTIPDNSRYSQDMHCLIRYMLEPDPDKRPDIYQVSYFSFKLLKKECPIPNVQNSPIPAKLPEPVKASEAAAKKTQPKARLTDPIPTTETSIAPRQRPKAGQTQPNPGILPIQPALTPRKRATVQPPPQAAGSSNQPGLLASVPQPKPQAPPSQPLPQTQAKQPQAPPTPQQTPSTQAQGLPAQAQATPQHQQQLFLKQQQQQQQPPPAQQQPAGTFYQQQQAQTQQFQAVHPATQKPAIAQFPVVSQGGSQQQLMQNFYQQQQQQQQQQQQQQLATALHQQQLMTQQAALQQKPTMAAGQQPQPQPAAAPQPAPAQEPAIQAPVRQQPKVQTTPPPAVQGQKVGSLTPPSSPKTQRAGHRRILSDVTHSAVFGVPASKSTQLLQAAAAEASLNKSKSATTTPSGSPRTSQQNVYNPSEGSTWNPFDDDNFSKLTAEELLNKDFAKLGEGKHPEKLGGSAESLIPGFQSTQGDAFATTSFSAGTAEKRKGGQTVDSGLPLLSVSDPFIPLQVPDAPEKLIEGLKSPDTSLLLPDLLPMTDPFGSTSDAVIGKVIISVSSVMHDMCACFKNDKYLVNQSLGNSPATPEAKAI

`CCCC(=O)N(C)[C@H]1CCN(c2ccc3ncc(Br)n3n2)C1` [(S)-N-(1-(3-bromoimidazo[1,2-b]pyridazin-6-yl)pyrrolidin-3-yl)-N-methylbutyramide] gave an IC50 not above 1000 nM. Regarding `CN(C(=O)N1CCCC1)[C@H]1CCN(c2ccc3ncc(Br)n3n2)C1` [(S)-N-(1-(3-bromoimidazo[1,2-b]pyridazin-6-yl)pyrrolidin-3-yl)-N-methylpyrrolidine-1-carboxamide], the half-inhibitory concentration (IC50) was not above 100 nM. For the compound `CCCC(=O)N(C)[C@H]1CCN(c2ccc3ncc(-c4cccnc4)n3n2)C1` [(S)-N-methyl-N-(1-(3-(pyridin-3-yl)imidazo[1,2-b]pyridazin-6-yl)pyrrolidin-3-yl)butyramide], the IC50 is not above 1000 nM. The same measure for `CCCC(=O)N(C)[C@H]1CCN(c2ccc3ncc(-c4ccncc4)n3n2)C1` [(S)-N-methyl-N-(1-(3-(pyridin-4-yl)imidazo[1,2-b]pyridazin-6-yl)pyrrolidin-3-yl)butyramide]: not above 100 nM. With `CN(C(=O)N1CCCC1)[C@H]1CCN(c2ccc3ncc(-c4ccncc4)n3n2)C1` [(S)-N-methyl-N-(1-(3-(pyridin-4-yl)imidazo[1,2-b]pyridazin-6-yl)pyrrolidin-3-yl)pyrrolidine-1-carboxamide] the figure was not above 100 nM; with `N#Cc1cnc2ccc(NC[C@@H]3CCCN3C(=O)OC3CCCC3)nn12` [(S)-cyclopentyl 2-(((3-cyanoimidazo[1,2-b]pyridazin-6-yl)amino)methyl)pyrrolidine-1-carboxylate], not above 10 nM; with `O=C(OCC1CC1)N1CCC[C@H]1CNc1ccc2ncc(-c3ccncc3)n2n1` [(S)-cyclopropylmethyl 2-(((3-(pyridin-4-yl)imidazo[1,2-b]pyridazin-6-yl)amino)methyl)pyrrolidine-1-carboxylate], not above 10 nM.

The compound `O=C(OCC1CC1)N1CCC[C@H]1CNc1ccc2ncc(Br)n2n1` [(S)-cyclopropylmethyl 2-(((3-bromoimidazo[1,2-b]pyridazin-6-yl)amino)methyl)pyrrolidine-1-carboxylate] gave an IC50 not above 10 nM. Consider `CC(C)OC(=O)N1CCC[C@H]1COc1ccc2ncc(-c3cccnc3O)n2n1` [(S)-isopropyl 2-(((3-(2-hydroxypyridin-3-yl)imidazo[1,2-b]pyridazin-6-yl)oxy)methyl)pyrrolidine-1-carboxylate], for which the 50% inhibitory concentration (IC50) is not above 100 nM. The same measure for `COc1ncccc1-c1cnc2ccc(OC[C@@H]3CCCN3C(=O)OC(C)C)nn12` [(S)-isopropyl 2-(((3-(2-methoxypyridin-3-yl)imidazo[1,2-b]pyridazin-6-yl)oxy)methyl)pyrrolidine-1-carboxylate]: not above 100 nM; for `Cc1ccc(-c2cnc3ccc(N4CC[C@H](N(C)C(=O)OC(C)C)C4)nn23)c(=O)n1C` [(S)-isopropyl (1-(3-(1,6-dimethyl-2-oxo-1,2-dihydropyridin-3-yl)imidazo[1,2-b]pyridazin-6-yl)pyrrolidin-3-yl)(methyl)carbamate]: not above 100 nM.

With `CC(C)OC(=O)N(C)[C@H]1CCN(c2ccc3ncc(-c4cccnc4OC(F)F)n3n2)C1` [(S)-isopropyl (1-(3-(2-(difluoromethoxy)pyridin-3-yl)imidazo[1,2-b]pyridazin-6-yl)pyrrolidin-3-yl)(methyl)carbamate], the half-inhibitory concentration (IC50) was not above 10 nM. With `CC(C)OC(=O)N(C)[C@H]1CCN(c2ccc3ncc(-c4ccncc4)n3n2)C1` [(S)-isopropyl methyl(1-(3-(pyridin-4-yl)imidazo[1,2-b]pyridazin-6-yl)pyrrolidin-3-yl)carbamate] the figure was not above 100 nM; with `CCCOC(=O)N1CCC[C@H]1CNc1ccc2ncc(Br)n2n1` [(S)-propyl 2-(((3-bromoimidazo[1,2-b]pyridazin-6-yl)amino)methyl)pyrrolidine-1-carboxylate], not above 10 nM.

Take `CN(C(=O)OC(C)(C)C)[C@H]1CCN(c2ccc3ncc(-c4cccnc4)n3n2)C1` [(S)-tert-butyl methyl(1-(3-(pyridin-3-yl)imidazo[1,2-b]pyridazin-6-yl)pyrrolidin-3-yl)carbamate]: the IC50 is not above 10 nM.

The term IC50 denotes the concentration that gives 50% inhibition. A lower IC50 goes with inhibition by little substance.
